We go through four compounds from article PMC12529164, “Design, Synthesis, Structure–Activity Relationships, and Preliminary Anticancer Properties of Menthol-Modified Coumarin Esters and 3,4-Dihydrocoumarin Derivatives” (ACS Omega, 2025).

For data set [1], the system named is HaCaT. As to the kind of experiment: MTT cytotoxicity assay, normal cells. Type of data set: cell-based. The note with it: 72 h, human immortal keratinocytes (normal cells); for IC50: HaCaT. As to the method: (§1) The human primary (SW480) and metastatic (SW620) colon cancer, metastatic prostate cancer (PC3), breast adenocarcinoma (MDA-MB-231) and human immortal keratinocyte (HaCaT) cell lines were recruited from the American Type Culture Collection (ATCC). The cells were cultured in the recommended medium according to protocols (RPMI 1640 for PC3, MEM for SW480 and SW620, as well as DMEM for MDA-MB-231 and HaCaT cells) with addition of 10% FBS, penicillin (100 U/mL), and streptomycin (100 μg/mL) and cultured in 37 °C/5% CO2 in a humidified incubator. Then, the cells were passaged at a confluence of 80–90% by a treatment with 0.25% trypsin (Gibco Life Technologies) and used for studies.
(§2) They were added to 96-well plates with seeded normal and cancer cells (1 × 10^4 cells per well) and incubated for 72 h. MTT analysis was performed according to a previous study.

For data set [2], the system named is IL-6 in PC3 cells. In words: Interleukin-6 ELISA. Type of data set: cell-based, human. The note with it: PC3, compound at IC50, 72 h. The method, then:
(§3) The concentration of Interleukin-6 (IL-6) was measured in cell culture supernatant using Interleukin IL-6 High Sensitivity ELISA kit (Diaclon SAS, Besancon Cedex, France). Cells (1 × 10^5 cells/well) were seeded in 12-well plates with medium for 24 h. […] After this incubation, the supernatants were collected and 100 μL of supernatant samples, control solutions and blank were added to precoated ELISA plate with the preceding plotting of the standard curve. Then 50 μL of diluted biotinylated antihuman interleukin-6 antibody was added and incubated at room temperature for 3 h. Afterward, the plate was washed three times and 100 μL streptavidin-HRP solution was added to each well. After 30 min incubation, the plate was washed again three times and 100 μL of tetramethylbenzidine (TMB) solution was added to each well. The plate was incubated for 15 min in the dark. The reaction was stopped by adding 100 μL of H2SO4 solution. The absorbance was estimated using a spectrophotometer at 450 nm (Microplate Spectrophotometer Thermo Scientific Multiskan GO).

Data set [3] has as its system IL-6 in HaCaT cells. As to the kind of experiment: Interleukin-6 ELISA. The settings on record: compound at IC50, 72 h; for IL-6 concentration: ELISA. Type of data set: cell-based, human. As to the method: as §3
(ELISA stands for enzyme-linked immunosorbent assay.)

In data set [4] the test system is HaCaT. As to the kind of experiment: Annexin V-FITC/PI flow cytometry. Type of data set: cell-based, human. The note with it: compound at IC50, 72 h, mean. As to the method: (§4) The apoptotic and necrotic cells treated with derivatives 2b, 4a, 4b were detected using FITC Annexin V Apoptosis Detection Kit I (BD Biosciences Pharmingen). Briefly, cells (2 × 10^5 cells/well) were seeded in 6-well plates in supplemented medium. […] Then cells were harvested, washed, and labeled with Annexin V-FITC and propidium iodide (PI) according to the manufacturer’s protocol. The stained cells were analyzed by flow cytometry. The cells were identified as early apoptotic (Annexin V+/PI−) or late apoptotic/necrotic (Annexin V+/PI+).
In general terms: Flow cytometry measures light scatter and fluorescence of single cells or particles in a stream.

The test system of data set [5] is PC3. In words: Annexin V-FITC/PI flow cytometry. Type of data set: cell-based, human. The note with it: PC3, compound at IC50, 72 h, mean. As to the method: as §4
Data set [6] deals with PC3. In words: MTT cytotoxicity assay. It counts as cell-based, human. The settings on record: for IC50: PC-3, MTT, 72 h, human metastatic prostate cancer; for SI PC3: SI = IC50 for normal cell line (HaCaT)/IC50 cancer cell line. As to the method:
as §1, §2
In general terms: Formazan colour is commonly taken as a measure of viable cells.

The subject of data set [7] is MDA-MB-231. In words: MTT cytotoxicity assay. It counts as cell-based, human. The settings on record: for IC50: MDA-MB-231, MTT, 72 h, human breast adenocarcinoma; for SI MDA-MB-231: SI = IC50 for normal cell line (HaCaT)/IC50 cancer cell line. The method, then:
as §1, §2

The subject of data set [8] is SW480. In words: MTT cytotoxicity assay. Type of data set: cell-based, human. The note with it: for SI SW480: SI = IC50 for normal cell line (HaCaT)/IC50 cancer cell line; for IC50: SW480, MTT, 72 h, human primary colon cancer. The method, then:
as §1, §2

The test system of data set [9] is SW620. As to the kind of experiment: MTT cytotoxicity assay. It counts as cell-based, human. The note with it: for SI SW620: SI = IC50 for normal cell line (HaCaT)/IC50 cancer cell line; for IC50: SW-620, MTT, 72 h, human metastatic colon cancer. The method, then: as §1, §2
The test system of data set [10] is tested cancer cell lines (SW480, SW620, PC3, MDA-MB-231). In words: MTT assay, mean over tested cancer cell lines. Type of data set: cell-based. The note with it: Homo sapiens, mean of the four cancer cell lines. As to the method: They were added to 96-well plates with seeded normal and cancer cells (1 × 10^4 cells per well) and incubated for 72 h. MTT analysis was performed according to a previous study. […]

In data set [11] the test system is HaCaT. As to the kind of experiment: Trypan blue assay. It counts as cell-based, human. The note with it: compound at IC50, 72 h; for cell number: mean; for reduction of number of cells: vs control. As to the method:
(§5) The total cell count was assessed by trypan blue exclusion dye assay using automated cell counter (Countess Invitrogen). Untreated cells were used as the control. Each experiment was repeated 5 times.

The subject of data set [12] is PC3. As to the kind of experiment: Trypan blue assay. Type of data set: cell-based, human. The settings on record: PC3, compound at IC50, 72 h. The method, then: as §5
Data set [13] is described as follows: Trypan blue assay. Type of data set: cell-based, human. The note with it: human, HaCaT cells, compound at IC50, 72 h, mean. As to the method:
as §5

Data set [14] concerns Danio rerio larvae. As to the kind of experiment: In vivo toxicity, maximum tolerated concentration. The settings on record: zebrafish larvae, immersion from 96 hpf for 18 h (120 hpf), 5-150 μM tested. The method, then:
Zebrafish (Danio rerio, strain AB) was maintained at the Experimental Medicine Center, Medical University of Lublin, Poland. Embryos and larvae up to 120 h postfertilization (hpf) were kept under generally accepted environmental conditions, i.e., in incubators at 28.5 °C, with 14/10 h light/dark cycles. The embryos of the Zebrafish were harvested after the natural reproduction process.
Three compounds showing low IC50 values determined on cancer lines in in vitro tests (2b, 4a) and compound 1a characterized by low cytotoxicity were used for in vivo tests. We also conducted research for coumarin. These compounds were dissolved in dimethyl sulfoxide (DMSO) (Sigma-Aldrich, St. Louis, MO, USA) and diluted in the zebrafish medium (pH 7.1–7.3; 5.0 mM NaCl, 0.17 mM KCl, 0.33 mM CaCl2, 0.33 mM MgSO4) to achieve a final DMSO concentration of 1% w/v. Twenty-four hpf zebrafish embryos were investigated under a light microscope, and […] fertilized embryos (n = 60) were selected and transferred into 48-well plates (5 embryos per well). Larvae were incubated in 1 mL of the zebrafish medium for up to 3 days after fertilization.
On the fourth day postfertilization (96 hpf), the larvae (10 individuals per group) were incubated in solutions of coumarin or its three derivatives (1a, 2b, 4a) at selected concentrations (5, 10, 25, 50, 75, 100, 150 μM), along with control solutions: negative control (zebrafish medium) and solvent control (1% DMSO in zebrafish medium). The maximum tolerated concentration (MTC) was calculated to assess the toxicity of the compounds and extracts. […] Larvae were individually inspected under a microscope for signs of acute locomotor dysfunction, including a weak reaction to light tail stimulation with a fine needle, disrupted posture, body deformities, protruding eyes, slowed or absent heartbeat, and mortality.

For data set [15], the system named is IL-6 in SW620 cells. As to the kind of experiment: Interleukin-6 ELISA. The note with it: SW620, compound at IC50, 72 h. It counts as cell-based, human. As to the method:
as §3

Data set [16] deals with SW620. As to the kind of experiment: Annexin V-FITC/PI flow cytometry. Type of data set: cell-based, human. The note with it: SW620, compound at IC50, 72 h, mean. The method, then: as §4
The test system of data set [17] is SW620. In words: Trypan blue assay. Type of data set: cell-based, human. The note with it: SW620, compound at IC50, 72 h. The method, then:
as §5

Where [18] appears, read: Table S7, >100 entered as 100, read-out: mean anticancer IC50.
The mark [19] stands for this setting: read-out: average IC50 against tested cancer cell lines.

Molecules are shown by their SMILES. Where two headings read alike, the source gives them in different places.

On to `COc1cccc2c1OC(=O)C(C(=O)O[C@@H]1C[C@H](C)CC[C@H]1C(C)C)C2P(=O)(c1ccccc1)c1ccccc1` (mixture of isomers) [Compound 4b, (1R,2S,5R)-2-Isopropyl-5-methylcyclohexyl-4-(diphenylphosphoryl)-8-methoxy-2-oxochromane-3-carboxylate], for which the IC50 in [1] came out at 27.6 ± 3.12 µM; in data set [6], 9.9 ± 1.42 µM; in data set [7], 47.6 ± 4.73 µM; in data set [8], 37.4 ± 2.45 µM; in data set [9], 19.8 ± 0.63 µM; in data set [10] (setting [18]), 28.7 µM. In addition, the IC50 in [10] (setting [19]) was 28.7 µM. Moreover, the results for the IL-6 concentration in [2] (ELISA) and in data set [3] were 0.9 ± 0.03 pg/mL and 10.5 ± 0.94 pg/mL, respectively. In addition, the “reduction of IL-6 level” value in data set [2] (vs control) stood at 79.2%. Moreover, in data set [3] (vs control), the “reduction of IL-6 concentration” value is given as “did not alter IL-6 secretion”. The “Early apoptosis [%]” value in data set [4] is reported as 2.55%; in data set [5], 10.50%. Besides, the results for the “Late apoptosis [%]” value in data set [4] and in data set [5] were 0.85% and 3.90%, respectively. Moreover, the results for the “Necrosis [%]” value in data set [4] and in [5] were 0.45% and 0.20%, respectively. Further, the “SI PC3” value in [6] amounted to 2.78. Moreover, in data set [7], the “SI MDA-MB-231” value is 0.58. The “SI SW480” value in [8] is recorded as 0.73. The “SI SW620” value in data set [9] is given as 1.39. Besides, the cell number in [11] is 5.23 x106; in [12] (mean) it was 4.26 x106. The “reduction of number of cells” value in data set [11] is reported as 16.6%. Also, in data set [12] (mean), the “viability (%)” value was 94%. Besides, the “reduction of number of live cells” value in data set [12] (vs control) is on record as 35.3%. The same compound yielded a viability at 72 h in data set [13] of 98.3%.
With `CC(C)[C@@H]1CC[C@@H](C)C[C@H]1OC(=O)c1cc2ccccc2oc1=O` [Compound 1a, (1R,2S,5R)-2-Isopropyl-5-methylcyclohexyl 2-oxo-2H-chromene-3-carboxylate], the IC50 was determined as 82.7 ± 3.5 µM in [1]; 57.8 ± 3.87 µM in [6]; 76.5 ± 8.85 µM in data set [7]; 70.5 ± 2.31 µM in data set [8]; 57.3 ± 5.36 µM in data set [9]; 65.5 µM in data set [10] (setting [18]). Besides, the concentration for half-maximal inhibition (IC50) in data set [10] (setting [19]) came out at 65.5 µM. Moreover, in data set [14], the “maximum tolerated concentration (MTC)” value came out at 0 µM. The “SI PC3” value in data set [6] is reported as 1.43. Besides, the “SI MDA-MB-231” value in data set [7] is 1.08. Further, the “SI SW480” value in [8] is recorded as 1.17. The “SI SW620” value in data set [9] was found to be 1.44.
With `CCOP(=O)(OCC)c1cc2cccc(OC)c2oc1=O` [Compound 2b, Diethyl (8-Methoxy-2-oxo-2H-chromen-3-yl)phosphonate], in [1], the “IC50 HaCaT” value is given as “did not show any cytotoxic effects” and the IC50 is more than 100 µM. In data set [3], this compound yielded an IL-6 concentration of 11.3 ± 0.59 pg/mL. For the same compound, the “increase in interleukin level” value in [3] (vs control) was determined as 10.7%. The compound further returned an IL-6 concentration in data set [15] (ELISA) of 2.1 ± 0.22 pg/mL. For the same compound, the “reduction of IL-6 level” value in [15] (vs control) came out at 33.5%. In addition, in data set [4], the “Early apoptosis [%]” value turned out to be 2.60%, the “Late apoptosis [%]” value was found to be 1.30% and the “Necrosis [%]” value is 0.30%. In data set [16], the “Necrosis [%]” value came out at 0.60%. In [6], the IC50 was more than 100 µM and the “SI PC3” value is given as 1. Further, in data set [7], the IC50 is more than 100 µM and the “SI MDA-MB-231” value is given as 1. In [8], the “SI SW480” value is on record as 1 and the IC50 is more than 100 µM. In data set [9], the “SI SW620” value was 9.8 and the IC50 was 10.2 ± 1.63 µM. Moreover, the IC50 in data set [10] (setting [19]) was more than 77.5 µM. Also, in data set [11], the cell number is 5.66 x106 and the “reduction of number of cells” value is “below 10%”. Besides, in data set [17] (mean), the cell number is 2.26 x106 and the “viability (%)” value was determined as 98.66%. Moreover, in data set [17] (vs control), the “reduction of number of live cells” value is recorded as 36.4%. Moreover, the viability at 72 h in data set [13] was found to be 94.7%.
Turning to `O=c1ccc2ccccc2o1` [coumarin, 2H-chromen-2-one], in data set [14], the “maximum tolerated concentration (MTC)” value was 100 µM.

As a reminder, the IC50 is the concentration at which inhibition is half-maximal. Broadly, the viability is a per cent measure of how many cells are alive, often set against a control.
